From article PMC8907375, “Arylated analogues of cypronazole: fungicidal effect and activity on human fibroblasts. Docking analysis and molecular dynamics simulations” (Natural Products and Bioprospecting, 2022)
Converted amounts (≈) assume the structure as drawn. Read-outs that look alike come from different tables or passages of the source.

Experiments:
[1] = tested on: B. cinerea (isolated from grapes); test: In vitro antifungal activity, broth microdilution (MIC100); assay type: cell-based, Botrytis cinerea; conditions: for MIC100 (complete growth inhibition) / Fungicidal activity MIC100, BC: 22 °C, total growth inhibition
Protocol: (§1) Fungal growth was assessed at six concentrations (3.1–100 μg/mL), using enriched Czapek broth in the presence of triazole 1-8 (Fig. 2). Each treatment was carried out in triplicate. The Minimum Inhibitory Concentration (MIC100) was determined and was defined as the minimum concentration required to inhibit the complete fungal growth inhibition under the conditions of the assay. Triadimefon (TDM) and cyproconazole (CPZ) were used as positive control. In order to evaluate the efficacy of the new compounds to control fungi affecting vineyards, imperfect fungi isolated from infected grapes from the province of San Juan in Argentina were employed. Significant differences were determined by t-Student hypothesis test p, at 95% confidence. In general, moderate to good activity was observed compared to the reference compounds as well as some selectivity against microorganisms.
(§2) The imperfect fungi used for the assays included Botrytis cinerea isolated from grapevine samples, Aspergillus fumigatus (ATTC 26934), A. niger (ATCC 9029), A. ustus (PN-S4), A. japonicus (M15C), A. terreus (M16C) and Fusarium oxysporum (M15-Pa) isolated from soil samples from the province of San Juan, Argentina. The microorganisms were grown on Czapek-yeast extract agar (CYA) prepared with yeast extract, K2HPO4, saccharose, agar, distilled water and enriched with a solution of mineral salts (NaNO3, KCl, MgSO4.7H2O and FeSO4.7 H2O). Inocula were adjusted to 1–5 × 10^4 colony forming units (CFU/ mL).
(§3) The minimum inhibitory concentration (MIC) of each compound was evaluated using broth microdilution techniques in 96-well microtiter plates according to the guidelines of the National Committee for Clinical Laboratory Standards for filamentous fungi M 38 A. The starting inoculum was 1–5 × 10^4 CFU/mL in accordance with the Clinical and Laboratory Standards Institute (CLSI, formerly the National Committee for Clinical Laboratory Standards [NCCLS]) (M27-A3 document for yeasts, and M38-A2 document for filamentous fungi).
(§4) Microtiter plates were incubated at 30 °C for Aspergillus and Fusarium, and 22 °C for B. cinerea in a moist and dark chamber. MIC values were recorded after 48 h for Aspergillus and Fusarium spp., and after 72 h for B. cinerea, according to the fungal growth control. TDM and CPZ were used as positive controls (12.5–50 μg/mL). Stock solutions were two-fold diluted with RPMI from 1000 to 0.98 μg/mL (final volume equal to 100 μL), and a final DMSO concentration ≤ 1%. An inoculum suspension (100 μL) was added to each well with the exception of the sterility control. Endpoints were defined as the lowest compound concentration resulting in total growth inhibition (MIC100) compared to the growth in control wells. MICs values ≤ 50 μg/mL were considered of interest. The assay was carried out in triplicate.

[2] = tested on: Aspergillus fumigatus (ATTC 26934); test: as above; assay type: cell-based; conditions: A. fumigatus, 30 °C, 48 h, total growth inhibition; for Minimum inhibitory concentration (MIC100): Aspergillus fumigatus, read-out: Fungicidal activity MIC100, AF
Protocol: as §1, §2, §3, §4

[3] = tested on: Fusarium oxysporum (M15-Pa); test: as above; assay type: cell-based; conditions: 30 °C, 48 h, total growth inhibition; for MIC100 (minimum concentration for complete growth inhibition): Fusarium oxysporum, F. oxysporum, read-out: Fungicidal activity MIC100, F
Protocol: as §1, §2, §3, §4

A. japonicus (M15C) = test: as above; assay type: cell-based, Aspergillus japonicus; conditions: 48 h; for MIC: read-out: Fungicidal activity MIC100, AJ; for Fungicidal activity MIC100, AJ: A. japonicus, 30 °C, total growth inhibition
Protocol: as §1, §2, §3, §4

A. niger (ATCC 9029) = test: as above; assay type: cell-based, Aspergillus niger; conditions: 48 h, total growth inhibition; for MIC100 (complete growth inhibition): Aspergillus niger, ATCC9029, 30 °C, read-out: Fungicidal activity MIC100, AN; for Fungicidal activity MIC100, AN: 30 °C
Protocol: as §1, §2, §3, §4

A. terreus (M16C) = test: as above; assay type: cell-based, Aspergillus terreus; conditions: 48 h; for MIC100 (complete growth inhibition): Aspergillus terreus, read-out: Fungicidal activity MIC100, AT, A. terreus, 30 °C, total growth inhibition
Protocol: as §1, §2, §3, §4

A. ustus (PN-S4) = test: as above; assay type: cell-based, Aspergillus ustus; conditions: 30 °C, 48 h, total growth inhibition; for MIC100 (complete growth inhibition): Aspergillus ustus, read-out: Fungicidal activity MIC100, AU
Protocol: as §1, §2, §3, §4

[4] = Cytotoxicity, neutral red uptake assay; assay type: cell-based, human; conditions: human
Protocol: (§5) The cytotoxic effect of the compounds, expressed as cell viability, was assessed on a permanent fibroblast cell line derived from human lung (MRC-5) (ATCC CCL-171). MRC-5 fibroblasts were grown as monolayers in minimum essential Eagle medium (MEM) with Earle’s salts, 2 mM l-glutamine and 2.2 g/L sodium bicarbonate, supplemented with 10% heat inactivated fetal bovine serum (FBS), 100 IU/mL penicillin and 100 µg/mL streptomycin in a humidified incubator with 5% CO2 in the air at 37 °C. Cell passage was maintained between 10 and 16. The medium was changed every 2 days.
(§6) Confluent cultures of MRC-5 fibroblasts were treated with medium containing the compounds at concentrations ranging from 0 to 1000 µM. For comparison purposes, the commercial antifungals CPZ and TDM were used as references, the products were first dissolved in DMSO and then in MEM, supplemented with 2% FBS. The final content of DMSO in the test medium and controls was 1%. Cells were exposed for 24 h to the test medium with or without the compound (control). Each concentration was tested in quadruplicate together with the control, and repeated three times in separate experiments. At the end of the incubation, the neutral red uptake (NRU) assay was carried out. To calculate the IC50 values (concentration that produces a 50% inhibitory effect on the evaluated parameter), the results were transformed to percentage of controls and the IC50 values were graphically obtained from the dose–response curves.

[5] = tested on: human lung fibroblasts MRC-5; test: Cytotoxicity, neutral red uptake assay; assay type: cell-based
Protocol: as §5, §6

[6] = Botrytis cinerea, B. cinerea, 72 h, read-out: Fungicidal activity MIC100, BC
[7] = Botrytis cinerea, B. cinerea, molar conversion of the µg/mL value, read-out: MIC100 against B. cinerea expressed

SMILES	MIC100 (complete growth inhibition) [1, 6] [mg/L]	Minimum inhibitory concentration (MIC100) [2] [mg/L]	MIC100 (minimum concentration for complete growth inhibition) [3] [mg/L]	MIC (A. japonicus (M15C)) [mg/L]	MIC100 (complete growth inhibition) (A. niger (ATCC 9029)) [mg/L]	MIC100 (complete growth inhibition) (A. terreus (M16C)) [mg/L]	Fungicidal activity MIC100, AU (A. ustus (PN-S4)) [mg/L]	MIC100 (complete growth inhibition) (A. ustus (PN-S4)) [mg/L]	IC50 at 24 h [4] [µM]	Fungicidal activity MIC100, AF [2] [mg/L]	Fungicidal activity MIC100, F [3] [mg/L]	Fungicidal activity MIC100, AJ (A. japonicus (M15C)) [mg/L]	Fungicidal activity MIC100, AN (A. niger (ATCC 9029)) [mg/L]	Fungicidal activity MIC100, AT (A. terreus (M16C); A. terreus, 30 °C, total growth inhibition) [mg/L]	IC50 [5] [µM]	Fungicidal activity MIC100, BC ([1]; B. cinerea, 72 h) [mg/L]	MIC [1, 7] [µM]	IC50 at 24 h ([4]; MRC-5 fibroblasts, 24 h exposure, neutral red uptake, ± SD, read-out: Cytotoxicity IC50) [µM]	MFC ([1]; Botrytis cinerea, 72 h, read-out: Fungicidal activity MIC100, BC) [mg/L]	MIC ([1]; Botrytis cinerea, read-out: MIC100 against B. cinerea expressed in µM) [µM]
C[C@@H](c1ncncc1F)[C@](O)(Cn1cncn1)c1ccc(F)cc1F [VOR, voriconazole, reference compound]	< 0.75	< 0.75	< 0.75	< 0.75	1.25 ± 0.4 (≈ 3.58 µM)	6.25 ± 0.8 (≈ 17.9 µM)	1.25 ± 0.5	1.25 (≈ 3.58 µM)	–	–	–	–	–	–	–	–	–	–	–	–
CC(C1CC1)C(O)(Cn1cncn1)c1ccc(-c2ccc3ccccc3c2)cc1 (centres unmarked) [Compound 7]	≥ 100	≥ 100	≥ 100	≥ 100	≥ 100	≥ 100	6.25 ± 0.3	6.25 (≈ 16.3 µM)	49.1 ± 3.4	–	–	–	–	–	–	–	–	–	–	–
c1nc[nH]n1 [Compound 8, 1H-1,2,4-Triazole]	–	–	–	–	–	–	≥ 100	–	–	≥ 100	≥ 100	≥ 100	≥ 100	≥ 100	> 1000	–	–	–	–	–
CC(C)(C)C(=O)C(Oc1ccc(Cl)cc1)n1cncn1 (centres unmarked) [TDM, 1-(4-chlorofenoxy)-3,3-dimethyl-1-(1H-1,2,4-triazol-1-yl)butan-2-one, reference compound]	80 (≈ 272 µM)	80 (≈ 272 µM)	≥ 100	≥ 100	≥ 100	> 100	–	80 ± 2.6 (≈ 272 µM)	–	80 ± 2.4	–	–	–	–	–	80 ± 2.2	274 (≈ 80.5 µg/mL)	248 ± 12.4	–	–
COc1ccc(-c2ccc(C(O)(Cn3cncn3)C(C)C3CC3)cc2)cc1 (centres unmarked) [Compound 5, 3-Cyclopropyl-2-(4'-methoxy-[1,1'-biphenyl]-4-yl)-1-(1H-1,2,4-triazol-1-yl)butan-2-ol]	≥ 100	≥ 100	≥ 100	≥ 100	6.25 (≈ 17.2 µM)	≥ 100	–	≥ 100	732 ± 29.3	–	–	–	6.25 ± 0.4	–	–	–	–	–	–	–
CC(C)(C)C(=O)C(Oc1ccc(-c2ccc(F)cc2)cc1)n1cncn1 (centres unmarked) [Compound 2]	≥ 100	≥ 100	≥ 100	≥ 100	≥ 100	≥ 100	–	≥ 100	90 ± 4.3	–	–	–	–	–	–	–	–	–	–	–
CC(C1CC1)C(O)(Cn1cncn1)c1ccc(-c2ccc([N+](=O)[O-])cc2)cc1 (centres unmarked) [Compound 6, 3-Cyclopropyl-2-(4'-nitro-[1,1'-biphenyl]-4-yl)-1-(1H-1,2,4-triazol-1-yl)butan-2-ol]	≥ 100	≥ 100	≥ 100	≥ 100	≥ 100	≥ 100	–	≥ 100	–	–	–	–	–	–	–	–	–	–	–	–
CC(C)(C)C(=O)C(Oc1ccc(-c2ccccc2)cc1)n1cncn1 (centres unmarked) [Compound 1, 1-(Biphenyl-4-yloxy)-3,3-dimethyl-1-(1H-1,2,4-triazol-1-yl)butan-2-one]	–	80 ± 2.5 (≈ 239 µM)	≥ 100	≥ 100	50 ± 1.7 (≈ 149 µM)	≥ 100	–	50 ± 1.2 (≈ 149 µM)	389 ± 23.5	–	–	–	–	–	–	10 ± 0.7	–	–	10 (≈ 29.8 µM)	29.8 (≈ 10 µg/mL)
CC(C1CC1)C(O)(Cn1cncn1)c1ccc(-c2ccccc2)cc1 (centres unmarked) [Compound 3, 2-(Biphenyl-4-yl)-3-cyclopropyl-1-(1H-1,2,4-triazol-1-yl)butan-2-ol]	25 (≈ 75 µM)	≥ 100	5	12.5 (≈ 37.5 µM)	3.12 (≈ 9.36 µM)	≥ 100	6.25 ± 0.3	6.25 (≈ 18.7 µM)	118 ± 9.4	–	5 ± 0.4	12.5 ± 0.8	3.12 ± 0.3	–	–	25 ± 1.4	75 (≈ 25 µg/mL)	–	–	–
